# Tests used:
# Type in all cases: in vivo
# Aphis craccivoral = experiment: Insecticidal activities to aphids, immersion method; details: for Aphis craccivoral Mortality (%) 500 ppm: in vivo
# Method in brief: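 Wingless adult aphids feeding on bean sprouts were dipped 5 s in 500 ppm compound (DMF stock diluted in 0.2 mL/L aqueous Triton X-100), blotted and held at 23° C. Dead counted at 24 h, three replicates; mortality corrected against Triton-only controls.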
# [1] = test system: Pseudaletia separate Walker; experiment: Insecticidal activities to armyworm, leaf dipping and feeding
# Method in brief: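 Maize leaves dipped 3 s in acetone-formulated compound at 500 down to 1.57 ppm, dried and fed to armyworms, 10 insects per treatment in triplicate, aqueous acetone as control. Mortality was counted after 24 hours and corrected against control survival.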
# Nilaparvata lugens = experiment: Insecticidal activities to plant hopper, spraying method; details: for Nilaparvata lugens Mortality (%) 500 ppm: in vivo
# Method in brief: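 Nilaparvata lugens, 10 insects per tumbler, sprayed with 2 ml compound in acetone at 0.79-500 ppm, three replicates, aqueous acetone control. Dead insects counted after 24 h; mortality corrected against control survival.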
# Plutella xylostella = experiment: Insecticidal activities to diamondback moth, feeding dipped leaves; details: for Plutella xylostella Mortality (%) 500 ppm: in vivo
# Method in brief: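 Leaf-dip feeding assay: fresh cabbage leaves dipped 3 s in test solution, air-dried and fed to Plutella xylostella, 10 insects per treatment, three replicates, water control. Deaths counted after 24 h; mortality corrected against survival in the control group.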
Structure (SMILES),Aphis craccivoral Mortality (%) 500 ppm (Aphis craccivoral) [%],Pseudaletia separate Walker Mortality (%) 500 ppm ([1]; in vivo) [%],Nilaparvata lugens Mortality (%) 500 ppm (Nilaparvata lugens) [%],Plutella xylostella Mortality (%) 500 ppm (Plutella xylostella) [%],"mortality at 500 ppm (Aphis craccivoral; Aphis, 500 ppm, immersion method, read-out: Aphis craccivoral Mortality (%) 500 ppm) [%]","Pseudaletia separate Walker Mortality (%) 500 ppm ([1]; 500 ppm, leaf dipping and feeding, counted after 24 hours) [%]","mortality at 500 ppm (Nilaparvata lugens; Nilaparvata lugens, 500 ppm, spraying method, counted after 24 hours, read-out: Nilaparvata lugens Mortality (%) 500 ppm) [%]","mortality at 500 ppm (Plutella xylostella; Plutella xylostella, 500 ppm, feeding dipped leaves, counted after 24 hours, read-out: Plutella xylostella Mortality (%) 500 ppm) [%]"
C[N+]1=C(C(=Cc2ccc(Br)s2)[N+](=O)[O-])N(Cc2ccc(Cl)nc2)CC1.[Cl-] [Compound 263],100,100,100,100,,,,
O=[N+]([O-])C(=Cc1cccnc1)C1=NCCN1Cc1ccc(Cl)nc1 [Compound 38],97,95,100,87,,,,
O=[N+]([O-])C(=Cc1ccc([N+](=O)[O-])o1)C1=NCCCN1Cc1ccc(Cl)nc1 [Compound 48],100,100,100,100,,,,
CC(=C(C1=NCCN1C(C)c1ccc(Cl)nc1)[N+](=O)[O-])c1ccc(Cl)o1 (racemic) [Compound 136],100,100,100,100,,,,
O=[N+]([O-])C(=Cc1ccc([N+](=O)[O-])s1)C1=NCCCN1Cc1ccc(Cl)nc1 [Compound 63],98,100,100,100,,,,
C[N+]1=C(C(=Cc2cc(Cl)co2)[N+](=O)[O-])N(Cc2ccc(Cl)nc2)CC1.[Cl-] [Compound 249],100,100,100,100,,,,
CC(=C(C1=NCCN1C(C)c1ccc(Cl)nc1)[N+](=O)[O-])c1ccoc1 (racemic) [Compound 134],38,52,51,46,,,,
CC(=C(C1=NCCN1Cc1ccc(Cl)nc1)[N+](=O)[O-])c1ccsc1 [Compound 116],89,76,94,64,,,,
O=[N+]([O-])C(=Cc1cccs1)C1=NCCCN1Cc1ccc(Cl)nc1 [Compound 61],100,100,100,100,,,,
N#CC(=Cc1oc(Cl)cc1Cl)C1=NCCN1Cc1ccc(Cl)nc1 [Compound 143],75,86,100,85,,,,
C[N+]1=C(C(=Cc2sc(Cl)cc2Cl)[N+](=O)[O-])N(Cc2ccc(Cl)nc2)CC1.[Cl-] [Compound 267],100,100,100,100,,,,
CC(c1ccc(Cl)nc1)N1CCN=C1C(=Cc1ccc([N+](=O)[O-])o1)[N+](=O)[O-] (racemic) [Compound 124],100,100,100,100,,,,
"O=[N+]([O-])/C(=C/c1cccs1)C1=NCCN1Cc1ccc(Cl)nc1 [Compound 16, 2-chloro-5-((2-(1-nitro-2-(thiophen-2-yl)vinyl)-4,5-dihydro-imidazol-1-yl)-methyl)pyridine]",,,,,100,100,100,100
C[N+]1=C(C(=Cc2oc(Cl)cc2Cl)[N+](=O)[O-])N(Cc2ccc(Cl)nc2)CC1.[Cl-] [Compound 252],100,100,100,100,,,,
CC(c1ccc(Cl)nc1)N1CCN=C1C(=Cc1cccs1)[N+](=O)[O-] (racemic) [Compound 127],100,100,100,100,,,,
